Compound `O=S(=O)(CCCCCOc1ccc(C2=C(c3ccccc3)CCCc3cc(O)ccc32)cc1)c1ccccc1` [Example 53, 6-phenyl-5-[4-(5-phenylsulfonyl-pentyloxy)-phenyl]-8,9-dihydro-7H-benzocyclohepten-2-ol] yielded a melting point of 162 °C.

The compound `CC(C)(C)c1ccc(SCCCCCOc2ccc(C3=C(c4ccccc4)CCCc4cc(O)ccc43)cc2)cc1` [Example 54, 5-{4-[5-(4-tert-Butyl-phenylthio)-pentyloxy]-phenyl}-6-phenyl-8,9-dihydro-7H-benzocyclohepten-2-ol] had a melting point of 139 °C.

Broadly, the melting point is the temperature of the solid-liquid transition.

For the origin of these results see patent publication US7145015B2, “Benzocycloheptenes, process for their production, pharmaceutical preparations that contain that latter as well as their use for the production of pharmaceutical agents” (Schering AG, priority 1998, dated 2006).
